From US11312722B2, “Hsp90 inhibitors and uses thereof” (TRUSTEES OF BOSTON UNIVERSITY, priority 2019, dated 2022)
Like-named read-outs stand apart in the source and are kept apart here.

Experiments:
[1] = tested on: Hsp90 (C. albicans whole cell lysate); assay: biochemical; format: binding; conditions: for C. alb Selective: Yes/No call
Protocol: (§1) All analogs were assessed for Hsp90 binding affinity using a fluorescence polarization (FP)-based equilibrium competition assay in fungal and human whole cell lysates. […] Using lysates, the relative potency and selectivity for fungal Hsp90 was measured versus the entire ensemble of human Hsp90 isoforms in microplate format using small amounts of test materials. […] Thermal shift assays were performed under saturating ligand conditions, i.e. equimolar concentrations (10 μM) of protein and ligand. As a result, they provided qualitative evidence of target binding, but not a quantitative measurement of ligand affinity. For quantitation, a ligand dissociation constant (Ki) for key compounds was also determined using purified NBDs in FP assays and KD measurements were made by surface plasmon resonance (SPR) using a Biacore instrument. Finally, all analogs were assessed for whole cell antifungal activity against the pathogens C. albicans and C. neoformans.
(§2) FP assays. Whole cell lysates were prepared for FP assays as described previously. Total protein concentration of human and yeast lysates was determined by Bradford assay. […] Serial dilutions of test Hsp90 inhibitors were then assayed under these same conditions to monitor loss of fluorescence polarization as an indicator of probe displacement from Hsp90. […] Titrations of test compound in 25 μL of binding buffer (supplemented with 0.1 mg/mL bovine gamma globulin), were mixed with an equal volume of freshly prepared whole-cell lysate spiked with Cy3-GdA (0.1 nM). Plates were incubated at room temperature for 4.5 h to achieve equilibrium binding for the geldanamycin-based probe. […] Non-linear 4-parameter curve fitting of raw displacement data was performed in GraphPad Prism 5.0 to determine EC50 values as a measure of relative Hsp90-binding affinity. Results were normalized to the value determined for GdA in lysate of each cell type.
(§3) Statistical methods. […] In calculating the error of selectivity determinations, the fractional error of measurements in each species was summed to yield a composite error for the derived ratio.

[2] = target: Hsp90 (C. albicans whole cell lysate) (Candida albicans (strain SC5314 / ATCC MYA-2876) (Yeast), UniProt P46598); assay: biochemical; format: binding; conditions: for C. alb Active (biochemical): Yes/No call
Protocol: as §1, §2, §3

[3] = target: Hsp90 (C. neoformans whole cell lysate) (Cryptococcus neoformans, UniProt J9VVA4); format: binding; conditions: for EC50: read-out: C. neo EC50; for C. neo Active (biochemical): Yes/No call
Hsp90 (C. neoformans whole cell lysate) (Cryptococcus neoformans, UniProt J9VVA4), sequence (J9VVA4 1-699): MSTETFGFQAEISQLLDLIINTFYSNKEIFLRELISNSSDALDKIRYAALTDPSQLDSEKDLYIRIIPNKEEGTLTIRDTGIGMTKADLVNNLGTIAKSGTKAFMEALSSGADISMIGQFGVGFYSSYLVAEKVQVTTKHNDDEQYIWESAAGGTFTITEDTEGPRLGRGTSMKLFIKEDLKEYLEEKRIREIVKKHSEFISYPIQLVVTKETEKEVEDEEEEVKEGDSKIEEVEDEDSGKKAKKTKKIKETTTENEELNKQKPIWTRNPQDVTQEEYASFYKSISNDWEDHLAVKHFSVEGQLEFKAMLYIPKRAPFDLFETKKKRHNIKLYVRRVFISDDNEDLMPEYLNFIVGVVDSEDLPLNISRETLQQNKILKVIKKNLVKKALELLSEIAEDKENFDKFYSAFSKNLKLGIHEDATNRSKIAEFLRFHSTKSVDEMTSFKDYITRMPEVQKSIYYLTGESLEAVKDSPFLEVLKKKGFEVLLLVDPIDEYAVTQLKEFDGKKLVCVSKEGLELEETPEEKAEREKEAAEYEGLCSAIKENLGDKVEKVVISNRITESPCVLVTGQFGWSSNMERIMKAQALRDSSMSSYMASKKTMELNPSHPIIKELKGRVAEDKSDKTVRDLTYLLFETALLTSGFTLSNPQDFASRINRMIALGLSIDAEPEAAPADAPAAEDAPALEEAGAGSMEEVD
Protocol: as §1, §2, §3

[4] = tested on: Hsp90 (C. neoformans whole cell lysate); format: binding; conditions: for C. neo Selectivity (FS): C. neo FS calculated using EC50
Protocol: as §1, §2, §3

[5] = tested on: C. neoformans (Strain H99); assay: Antifungal sensitivity testing (MIC), C. neoformans H99; format: cell-based; conditions: for MIC80 / MIC90: Cryptococcus neoformans; for MIC80: read-out: C. neo MIC80; for MIC90: read-out: C. neo MIC90; for C. neo Active (cells): Yes/No call
Protocol: Color scale bar: no growth inhibition (green) to complete inhibition (black). Each shaded box represents the mean of technical duplicates. The experiment was repeated as an independent biological replicate to confirm results.
Minimum inhibitory concentration (MIC) value for compounds against C. neoformans (Strain H99) was determined in dose-response format, in technical duplicate. Experiments were conducted in RPMI medium at 37° C. for 48 h. Relative viable cell number was measured by standard dye reduction (resazurin) assay.
Yeast strains and culture conditions. Strains used in this study were C. albicans CaCi2 (clinical isolate 2), [58] SC5314, [59] and C. neoformans H99. […] Active cultures were maintained on solid (2% agar) yeast extract peptone (YPD, 1% yeast extract, 2% bactopeptone, 2% glucose) at 4° C. for no more than one month.
Antifungal sensitivity testing. […] Each compound was tested in duplicate in at least two independent experiments. […] Plates were photographed after 24 h of incubation at 30° C.

| SMILES | C. alb Selectivity (FS) [1] | C. alb Selective [1] | C. alb Active (biochemical) [2] | EC50 ([2]; read-out: C. alb EC50) [nM] | EC50 [3] [nM] | C. neo Selectivity (FS) [4] | MIC80 [5] [µM] | MIC90 [5] [µM] | C. neo MIC80 [5] [µM] | C. neo MIC90 [5] [µM] | C. neo Active (biochemical) [3] | C. neo selective ([4]; Yes/No call) | C. neo Active (cells) [5] | EC50 ([2]; FP competition, whole cell lysate, duplicate, screening experiment, read-out: C. albicans EC50) [nM] |
| --- | --- | --- | --- | --- | --- | --- | --- | --- | --- | --- | --- | --- | --- | --- |
| Cc1cccc(-n2nc(C)c(Nc3cc(O)cc(O)c3C(=O)N3Cc4ccccc4C3)c2C)c1 [ACSM01486, (2-((3,5-Dimethyl-1-(m-tolyl)-1H-pyrazol-4-yl)amino)-4,6-dihydroxyphenyl)(isoindolin-2-yl)methanone] | 0.7 | No | Yes | 2060 | 34 | 43.4 | > 25 | > 25 | – | – | – | – | – | – |
| Cn1nc(-c2ccccc2C(F)(F)F)cc1Nc1cc(O)cc(O)c1C(=O)N1Cc2ccncc2C1 [ACSM01491] | 3.9 | No | Yes | 724 | 47 | 62.2 | – | – | >25 | >25 | – | – | – | – |
| COc1ccc(Cn2nc(-c3ccccc3)cc2Nc2cc(O)cc(O)c2C(=O)N2Cc3ccncc3C2)cc1 [BUCMD00433] | 31 | Yes | Yes | 11 | 75 | 13 | – | – | >25 | >25 | Yes | Yes | No | – |
| Cn1nccc1Nc1cc(O)cc(O)c1C(=O)N1CC2CC2C1 (centres unmarked) [ACSM01301] | – | No | No | > 10000 | 2400 | 5 | – | – | >25 | >25 | – | – | – | – |
| Cc1nn(-c2cccc(C(F)(F)F)c2)c(C)c1Nc1cc(O)cc(O)c1C(=O)N1Cc2ccccc2C1 [ACSM01494, (2-((3,5-Dimethyl-1-(3-(trifluoromethyl)phenyl)-1H-pyrazol-4-yl)amino)-4,6-dihydroxyphenyl)(isoindolin-2-yl)methanone] | 1.8 | No | Yes | 1590 | 30 | 97.7 | > 25 | > 25 | – | – | – | – | – | – |
| COc1ccc(Cn2nc(-c3ccccc3)cc2Nc2cc(O)cc(O)c2C(=O)N2Cc3cccnc3C2)cc1 [Compound 23, 5-((1-((4-Methoxyphenyl)methyl)-3-phenyl-1H-pyrazol-5-yl)amino)-4-(5H,6H,7H-pyrrolo[3,4-b]pyridine-6-carbonyl)benzene-1,3-diol] | – | – | – | – | – | – | > 25 | > 25 | – | – | Yes | – | No | – |
| COc1cccc(-c2cc(Nc3cc(O)cc(O)c3C(=O)N3Cc4ccc(N5CCN(C)CC5)cc4C3)n(C)n2)c1 [ACSM01375] | – | No | No | > 10000 | 1240 | 9.6 | – | – | >25 | >25 | – | – | – | – |
| O=C(O)Cn1nc(-c2ccccc2)cc1Nc1cc(O)cc(O)c1C(=O)N1Cc2ccccc2C1 [ACSM01476] | 1.4 | No | Yes | 2120 | 537 | 5.8 | – | – | >25 | >25 | – | – | – | – |
| COc1ccccc1-n1nc(C)c(Nc2cc(O)cc(O)c2C(=O)N2Cc3ccccc3C2)c1C [ACSM01493, (2,4-Dihydroxy-6-((1-(2-methoxyphenyl)-3,5-dimethyl-1H-pyrazol-4-yl)amino)phenyl)(isoindolin-2-yl)methanone] | 1.2 | No | Yes | 1060 | 191 | 7.2 | > 25 | > 25 | – | – | – | – | – | – |
| Cc1cccc(-c2cc(Nc3cc(O)cc(O)c3C(=O)N3Cc4ccccc4C3)n(C)n2)c1 [Compound 109, 4-(2,3-Dihydro-1H-isoindole-2-carbonyl)-5-((1-methyl-3-(3-methylphenyl)-1H-pyrazol-5-yl)amino)benzene-1,3-diol] | – | – | Yes | – | – | – | > 25 | > 25 | – | – | – | – | – | – |
| Cc1ccccc1-c1cc(Nc2cc(O)cc(O)c2C(=O)N2Cc3cn[nH]c3C2)n(C)n1 [Compound 108, 5-((1-Methyl-3-(2-methylphenyl)-1H-pyrazol-5-yl)amino)-4-(1H,4H,5H,6H-pyrrolo[3,4-c]pyrazole-5-carbonyl)benzene-1,3-diol] | – | – | Yes | – | – | – | > 25 | > 25 | – | – | – | – | – | – |
| Cc1ccccc1-c1cc(Nc2cc(O)cc(O)c2C(=O)N2Cc3cccnc3C2)n(C)n1 [Compound 107, 5-((1-Methyl-3-(2-methylphenyl)-1H-pyrazol-5-yl)amino)-4-(5H,6H,7H-pyrrolo[3,4-b]pyridine-6-carbonyl)benzene-1,3-diol] | – | – | Yes | – | – | – | > 25 | > 25 | – | – | – | – | – | – |
| Cn1nc(C2CCCCC2)cc1Nc1cc(O)cc(O)c1C(=O)N1Cc2cccnc2C1 [Compound 104, 5-((3-Cyclohexyl-1-methyl-1H-pyrazol-5-yl)amino)-4-(5H,6H,7H-pyrrolo[3,4-b]pyridine-6-carbonyl)benzene-1,3-diol] | – | – | Yes | – | – | – | > 25 | > 25 | – | – | – | – | – | – |
| Cn1nc(-c2cccc(C(F)(F)F)c2)cc1Nc1cc(O)cc(O)c1C(=O)N1Cc2ccccc2C1 [Compound 115, 4-(2,3-Dihydro-1H-isoindole-2-carbonyl)-5-((1-methyl-3-(3-(trifluoromethyl)phenyl)-1H-pyrazol-5-yl)amino)benzene-1,3-diol] | – | – | Yes | – | – | – | > 25 | > 25 | – | – | – | – | – | – |
| COc1ccc(Cn2nc(C)cc2Nc2cc(O)cc(O)c2C(=O)N(C)CC2CC2)cc1 [Compound 30, N-(Cyclopropylmethyl)-2,4-dihydroxy-6-((1-((4-methoxyphenyl)methyl)-3-methyl-1H-pyrazol-5-yl)amino)-N-methylbenzamide] | – | – | No | > 9000 | – | – | > 25 | > 25 | – | – | – | – | – | > 9000 |
